Source: patent publication US20260174739A1 (priority 2022, published 2026)
Where two headings read alike, the source gives them in different places.

How the values were obtained:
human DAT = human DAT (Homo sapiens, UniProt Q01959); assay: DAT transporter inhibitory activity test (neurotransmitter transporter uptake assay kit); type: cell-based; details: DAT stably transfected HEK cells; read-out: DAT (IC50)
Experimental: Transporter inhibition of human DAT and NET expressed in HEK-293 cells was assessed using a neurotransmitter transporter uptake assay kit. The assay was performed as described in the kit instructions, using centanafadine as a positive control. The specific procedures were as follows:
DAT stably transfected culture: The DAT-HEK cell line was cultured in DMEM medium containing 10% fetal bovine serum and 0.2 mg/mL hygromycin B at 37° C. with 5% carbon dioxide.
DAT stably transfected cell passage: the old medium was removed, and the cells were washed once with PBS; 1 mL of TrypLE™ Express solution was then added, and the cells were incubated at 37° C. for about 2 min. When the cells were detached from the bottom of the dish, about 5 mL of complete medium pre-heated at 37° C. was added. The cell suspension was gently pipetted to separate the aggregated cells. The cell suspension was transferred to a sterile centrifuge tube and centrifuged at 1000 rpm for 5 min. In order to maintain the physiological activity of the cells, the experimental cell confluence was controlled at about 80%.
• a) After overnight transfection of NET cells, the cells were digested with trypsin, resuspended with DMEM+10% Dialyzed FBS medium, seeded into a 384-well plate at 20000 cells/well, and incubated overnight. […] After centrifuging, the plate was incubated at 37° C. for 30 min. • e) A detection reagent was prepared using 1×HBSS, and 16 μL of the detection reagent was added to each well. […] Curve fitting and IC50 calculation were performed using GraphPad Prism software nonlinear regression method.

[1] = Human liver microsome assay (metabolic stability); type: in vitro ADME; details: pH 7.4, human liver microsomes 0.2 mg/mL, 1 μM test drug, NADPH, 37° C.; for half-life at 1 μM: read-out: Half-life (t1/2, min); for CLint scaled at 1 μM: read-out: Intrinsic clearance (Clint, mL/min/kg)
Experimental: Control and reagent: NADPH, magnesium chloride, testosterone, phosphate buffer, etc. were supplied by Dalian Meilun Biotech Co., Ltd., etc.
Liver microsome: human liver microsomes were supplied by Corning.
Experimental step: the liver microsome incubations were performed in 96-well plates, each incubation system having a volume of 200 μL, in a medium of 0.1 M phosphate buffer (pH 7.4), including liver microsomes at a final concentration of 0.2 mg/mL, 1 μM of the test drug, 3.0 mM MgCl2, 0.01% DMSO, 0.5% acetonitrile, and 2.0 mM NADPH. The incubation system described above without NADPH was pre-incubated at 37° C. for 5 min using a rotary water bath constant temperature oscillator. NADPH was added to initiate the reaction. At 0, 5, 15, 30, and 60 min, 20 μL of the sample was taken out from the incubation system after mixing well and added to 200 μL of acetonitrile containing an internal standard to terminate the reaction. Under the same conditions, 1 μM testosterone was used as a positive control to assess the reliability of the reaction system. For the negative control, phosphate buffer was used instead of NADPH, and all other incubation conditions remained the same. At 60 min, 20 μL of the sample was taken out after mixing well and added to 200 μL of termination solution containing an internal standard to terminate the reaction.
Sample analysis: After treatments such as precipitated protein extraction with an organic solvent, the incubated sample was analyzed using liquid chromatography-tandem mass spectrometry (LC-MS/MS). The concentrations of the test drug or the positive control drug in the sample were semi-quantified. The concentration in the sample was expressed using the ratio of the analyte peak area to the internal standard peak area.
Data processing and analysis: A standard curve of the In residual rate of the drug in the incubation system with respect to the incubation time was plotted by using Excel software, linear regression was performed to obtain a slope k, and the half-life T1/2 (min) and the intrinsic clearance CLint (mL/min/kg) were calculated according to the following formula: […]

human SERT = human SERT (Homo sapiens, UniProt P31645); assay: Inhibitory activity assay against 5-HT transporter (neurotransmitter transporter uptake assay kit); type: cell-based; details: HEK-293 cells overexpressing human SERT; read-out: 5-HTT (IC50)
Chain of human SERT (P31645 whole entry): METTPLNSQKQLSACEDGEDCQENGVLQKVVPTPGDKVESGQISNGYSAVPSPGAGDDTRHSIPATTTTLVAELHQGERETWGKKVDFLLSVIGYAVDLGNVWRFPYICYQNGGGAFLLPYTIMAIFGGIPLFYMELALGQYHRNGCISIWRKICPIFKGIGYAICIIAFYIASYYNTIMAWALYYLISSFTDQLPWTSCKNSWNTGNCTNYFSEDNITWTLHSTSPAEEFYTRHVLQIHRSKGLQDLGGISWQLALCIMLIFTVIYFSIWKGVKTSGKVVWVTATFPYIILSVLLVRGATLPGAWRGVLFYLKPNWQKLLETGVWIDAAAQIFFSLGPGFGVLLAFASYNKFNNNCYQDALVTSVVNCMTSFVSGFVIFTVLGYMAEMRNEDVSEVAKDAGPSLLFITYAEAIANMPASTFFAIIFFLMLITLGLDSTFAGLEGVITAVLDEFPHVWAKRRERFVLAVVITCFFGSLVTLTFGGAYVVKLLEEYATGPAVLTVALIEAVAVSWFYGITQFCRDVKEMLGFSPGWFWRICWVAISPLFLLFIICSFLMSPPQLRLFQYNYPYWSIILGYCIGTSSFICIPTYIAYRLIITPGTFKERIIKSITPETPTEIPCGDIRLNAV
Experimental: In HEK-293 cells overexpressing human SERT, the transporter inhibitory effect of the test compound on human SERT was assayed using a Neurotransmitter transporter uptake assay kit (Molecular devices).

[2] = In vivo metabolism (pharmacokinetic) experiment in mice; set-up: species or system male ICR mice; details: mouse, male ICR mice; for AUC(0-inf) / Cmax / half-life: oral 10 mg/kg, plasma; for AUC(0-inf): read-out: AUC0-inf(po); for Cmax: read-out: Cmax (po); for half-life: read-out: T1/2 (po) (converted)
Experimental: Animal: male ICR mice. The animals were randomly assigned to treatment groups and fasted for 12 h prior to dosing.
Drug: the compound of the present disclosure was dissolved in a vehicle (5% DMSO+5% Solutol HS15+90% saline). For intravenous (iv) administration, the dose was 2.5 mg/kg with a dosing volume of 5 mL/kg; for oral (po) administration, the dose was 10 mg/kg with a dosing volume of 10 mL/kg body weight. Sample collection and bioanalysis: blood was collected from the orbit of the mice and added into EP tubes containing heparin sodium at 0.083, 0.25, 0.5, 1, 2, 4, 6, and 8 h (n=3 for each time point). Immediately after blood collection, the mice were euthanized by cervical dislocation, and mouse brains were collected at the corresponding time points. All samples were promptly collected, snap-frozen, and stored at −70° C. for later use. Plasma samples were obtained by centrifugation of whole blood. 10 μL of plasma was mixed with 190 μL of internal standard solution (20 ng/ml in acetonitrile containing 0.1% formic acid). After mixing, the samples were centrifuged at 13000 rpm for 10 min, and 120 μL of the supernatant was separately collected. Depending on the sensitivity of the compound, 0.5-10 μL of the supernatant was taken for drug analysis using the appropriate liquid chromatography-tandem mass spectrometry (LC-MS/MS). Each analyte was calibrated and identified using standards. According to brain tissue: the extract (50% acetonitrile/water) at a ratio of 1 g:8 mL was homogenized for 2 min using five 3 mm magnetic beads in an OMNI Bead Ruptor 24 Elite homogenizer at 3.2 m/s and centrifuged at 4° C. and 3000 g for 3 min. 50 μL of the supernatant was mixed with 200 μL of internal standard solution (20 ng/mL in 80% acetonitrile/water). After mixing, the samples were centrifuged at 13,000 rpm for 10 min, and 120 μL of the supernatant was separately collected. Depending on the sensitivity of the compound, 0.5-10 μL of the supernatant was taken for drug analysis using the appropriate LC-MS/MS method. Each analyte was calibrated and identified using standards.
Data analysis: drug concentrations below the lower limit of quantification (LLOQ) were considered zero. Pharmacokinetic parameters were analyzed using PK Solver with a non-compartmental, bolus injection or extravascular input analysis models. Data points below the LLOQ were excluded to improve the efficacy of t1/2 calculation.

Chain of human DAT (Q01959 whole entry): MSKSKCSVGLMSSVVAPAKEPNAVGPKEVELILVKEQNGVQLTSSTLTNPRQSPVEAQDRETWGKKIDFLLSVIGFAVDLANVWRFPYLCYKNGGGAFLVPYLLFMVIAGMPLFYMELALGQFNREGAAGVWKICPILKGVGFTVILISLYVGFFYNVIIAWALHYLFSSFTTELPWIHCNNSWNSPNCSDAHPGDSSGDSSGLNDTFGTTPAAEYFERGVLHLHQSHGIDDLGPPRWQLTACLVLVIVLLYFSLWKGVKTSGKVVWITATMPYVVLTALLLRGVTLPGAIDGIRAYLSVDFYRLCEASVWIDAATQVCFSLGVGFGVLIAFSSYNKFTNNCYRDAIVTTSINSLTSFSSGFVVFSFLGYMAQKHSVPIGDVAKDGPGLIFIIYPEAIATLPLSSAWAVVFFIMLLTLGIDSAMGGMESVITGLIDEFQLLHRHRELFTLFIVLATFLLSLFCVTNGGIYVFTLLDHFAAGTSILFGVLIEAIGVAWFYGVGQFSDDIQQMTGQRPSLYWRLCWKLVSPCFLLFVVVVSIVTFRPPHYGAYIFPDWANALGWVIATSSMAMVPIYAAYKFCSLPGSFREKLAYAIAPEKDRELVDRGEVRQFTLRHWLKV

`CCOc1cccc(C2(NC)CCc3nc(N)sc3C2)c1` (racemic) [rac-A342, 6-(3-ethoxyphenyl)-N^6-methyl-4,5,6,7-tetrahydrobenzo[d]thiazole-2,6-diamine] showed an IC50 (human DAT) of 0.35 µM.
For `CC(C)Oc1cccc(C2(N)CCc3nc(N)sc3C2)c1` (racemic) [rac-A321, 6-(3-isopropoxyphenyl)-4,5,6,7-tetrahydrobenzo[d]thiazole-2,6-diamine], the IC50 (human DAT) was 5.9 µM.
Molecule `Nc1nc2c(s1)CC(NCC1CC1)(c1ccccc1F)CC2` (racemic) [rac-A374, N^6-(cyclopropylmethyl)-6-(2-fluorophenyl)-4,5,6,7-tetrahydrobenzo[d]thiazole-2,6-diamine] has an IC50 (human DAT) of 3.8 µM.
Work on `Nc1nc2c(s1)C[C@](N)(c1ccccc1)CC2` [S-A1] yielded an IC50 (human DAT) of 6.5 µM.
With `c1ccc(C2(N3CCCCC3)CCc3ncsc3C2)cc1` (racemic) [rac-A71, 6-phenyl-6-(piperidin-1-yl)-4,5,6,7-tetrahydrobenzothiazole] the half-life at 1 μM [1] was 210 min and the CLint scaled at 1 μM [1] was 13.8 mL/min/kg.
`Nc1nc2c(s1)CC(N)(c1ccc3c(c1)OCO3)CC2` (racemic) [rac-A303, 6-(benzo[d][1,3]dioxol-5-yl)-4,5,6,7-tetrahydrobenzo[d]thiazole-2,6-diamine] gave an IC50 (human DAT) of 8.2 µM.
`CCOc1cccc([C@]2(N)CCc3nc(N)sc3C2)c1` [S-A228, (S)-6-(3-ethoxyphenyl)-4,5,6,7-tetrahydrobenzo[d]thiazole-2,6-diamine] gave an IC50 (human DAT) of 1.8 µM.
`c1ccc(C2(N3CCCC3)CCc3nnsc3C2)cc1` (racemic) [rac-A54, 6-phenyl-6-(pyrrolidin-1-yl)-4,5,6,7-tetrahydrobenzothiadiazole] gave an IC50 (human DAT) of 2.8 µM.
Molecule `CNCC1(c2ccccc2)CCc2nc(N)sc2C1` (racemic) [rac-A252, 6-((methylamino)methyl)-6-phenyl-4,5,6,7-tetrahydrobenzo[d]thiazol-2-amine] has an IC50 (human DAT) of 9.5 µM.
For `NC1(c2ccc3ccccc3c2)CCc2sccc2C1` (racemic) [rac-A247, 5-(naphthalen-2-yl)-4,5,6,7-tetrahydrobenzo[b]thiophen-5-amine], the IC50 (human SERT) was 4.5 µM and the IC50 (human DAT) was 1.5 µM.
With `NC1(c2cccc(O)c2)CCc2nc(NCC(F)(F)F)sc2C1` (racemic) [rac-A396, 3-(6-amino-2-((2,2,2-trifluoroethyl)amino)-4,5,6,7-tetrahydrobenzo[d]thiazol-6-yl)phenol] the IC50 (human DAT) was 18 µM.
In the case of `O=C(O)c1cc2c(s1)CCC(c1ccccc1)(N1CCOCC1)C2` (racemic) [rac-A46, 5-morpholino-5-phenyl-4,5,6,7-tetrahydrobenzothiophen-2-carboxylic acid], the AUC(0-inf) ([2]; male, ICR, po, 10 mg/kg) is reported as 3900 ng·h/mL, the Cmax ([2]; male, ICR, po, 10 mg/kg) is reported as 2710 ng/mL and the half-life ([2]; male, ICR, po, 10 mg/kg) is reported as 2.6 h.
`c1ccc(C2(N3CCOCC3)CCc3sccc3C2)cc1` (racemic) [rac-A47, 4-(5-phenyl-4,5,6,7-tetrahydrobenzothiophen-5-yl)morpholine] gave an IC50 (human DAT) of 1.3 µM.
For `COc1cc(C2(N)CCc3nc(N)sc3C2)ccn1` (racemic) [rac-A309, 6-(2-methoxypyridin-4-yl)-4,5,6,7-tetrahydrobenzo[d]thiazole-2,6-diamine], the IC50 (human DAT) was 14 µM.
Molecule `CNC1(c2ccccc2)CCc2[nH]ncc2C1` (racemic) [rac-A69, N-methyl-5-phenyl-4,5,6,7-tetrahydro-1H-indazol-5-amine] has a bioavailability ([2]; oral 10 mg/kg vs iv 2.5 mg/kg, read-out: F (%)) of 132%, an AUC(0-inf) [2] of 602 ng·h/mL and a Cmax [2] of 456 ng/mL. It also gave a half-life [2] of 0.69 h.
For `CNC1(c2ccc(Cl)cc2)CCc2nc(N)sc2C1` (racemic) [rac-A332, 6-(4-chlorophenyl)-N^6-methyl-4,5,6,7-tetrahydrobenzo[d]thiazole-2,6-diamine], the IC50 (human DAT) was 3.2 µM.
With `N[C@@]1(c2ccccc2)CCc2ncsc2C1` [S-A14] the IC50 (human DAT) was 11 µM.
Work on `NC1(c2ccccc2)CCCc2scnc21` (racemic) [rac-A32, 4-phenyl-4,5,6,7-tetrahydrobenzothiazol-4-amine] yielded a half-life at 1 μM [1] of 196 min and a CLint scaled at 1 μM [1] of 20.7 mL/min/kg.
For `Nc1nc2c(s1)C[C@@](c1ccccc1)(N1CCCC1)CC2` [S-A50], the IC50 (human DAT) was 2.4 µM.
`CN(C)C1(c2cccc(O)c2)CCc2nc(N)sc2C1` (racemic) [rac-A305, 3-(2-amino-6-dimethylamino-4,5,6,7-tetrahydrobenzo[d]thiazol-6-yl)phenol] gave an IC50 (human DAT) of 0.24 µM.
With `CNC1(c2cccnc2)CCc2nc(N)sc2C1` (racemic) [rac-A99, N^6-methyl-6-(pyridin-3-yl)-4,5,6,7-tetrahydrobenzothiazole-2,6-diamine] the IC50 (human DAT) was 11 µM.
With `COc1cccc(C2(N(C)C)CCc3nc(N)sc3C2)c1` (racemic) [rac-A283, 6-(3-methoxyphenyl)-N^6,N^6-dimethyl-4,5,6,7-tetrahydrobenzo[d]thiazole-2,6-diamine] the IC50 (human DAT) was 0.45 µM.
With `CCNC1(c2cccc(OC)c2)CCc2nc(N)sc2C1` (racemic) [rac-A226, N^6-ethyl-6-(3-methoxyphenyl)-4,5,6,7-tetrahydrobenzo[d]thiazole-2,6-diamine] the IC50 (human SERT) was 2 µM and the IC50 (human DAT) was 2 µM.
Work on `Clc1cccc(C2(N3CCCCC3)CCc3nnsc3C2)c1` (racemic) [rac-A58, 6-(3-chlorophenyl)-6-(piperidin-1-yl)-4,5,6,7-tetrahydrobenzothiadiazole] yielded an IC50 (human DAT) of 2.7 µM.
Work on `CN(C)C1(c2ccccc2F)CCc2nc(N)sc2C1` (racemic) [rac-A234, 6-(2-fluorophenyl)-N^6,N^6-dimethyl-4,5,6,7-tetrahydrobenzo[d]thiazole-2,6-diamine] yielded an IC50 (human SERT) of 0.3 µM and an IC50 (human DAT) of 6.3 µM.
